The values below come from PMC8930249, “Elucidating the Novel Mechanism of Ligustrazine in Preventing Postoperative Peritoneal Adhesion Formation” (Oxidative Medicine and Cellular Longevity, 2022).

One may read the Kd as the free concentration of one partner at which half of the binding sites on the other are occupied at equilibrium, for simple one-to-one binding.

The assay concerns the target T1, PPARγ (Homo sapiens, UniProt P37231).
T1 construct: gene PPARG; recombinant His-tagged PPARγ (pET10), wild type
T1 sequence (P37231 1-505): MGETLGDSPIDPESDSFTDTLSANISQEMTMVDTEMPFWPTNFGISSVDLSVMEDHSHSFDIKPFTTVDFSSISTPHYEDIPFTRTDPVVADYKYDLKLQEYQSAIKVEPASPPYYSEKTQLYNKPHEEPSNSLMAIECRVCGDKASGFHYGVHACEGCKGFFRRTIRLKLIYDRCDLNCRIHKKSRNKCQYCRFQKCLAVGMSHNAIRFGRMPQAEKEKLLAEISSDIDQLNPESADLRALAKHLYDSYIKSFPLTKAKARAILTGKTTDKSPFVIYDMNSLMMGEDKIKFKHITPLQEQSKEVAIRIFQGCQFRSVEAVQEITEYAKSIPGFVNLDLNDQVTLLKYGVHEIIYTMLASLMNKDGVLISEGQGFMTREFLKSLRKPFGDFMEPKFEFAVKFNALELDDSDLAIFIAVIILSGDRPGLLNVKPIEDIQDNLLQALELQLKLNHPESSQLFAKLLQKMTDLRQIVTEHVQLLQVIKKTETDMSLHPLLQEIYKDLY
The experiment in a line: biolayer interferometry (Octet RED […]), Ni-NTA immobilised His-tagged protein. It counts as binding. (In general: Biolayer interferometry detects binding as a change in optical thickness at a sensor tip.)

SMILES strings stand for the structures.

With `Cc1nc(C)c(C)nc1C` [Ligustrazine], the Kd is 39.4 µM.
